Source: ChEMBL document CHEMBL1201862, “PubChem BioAssay data set” (2004)
Calls of active or inactive are those of the source.

Columns and labels:
[1] = molecular target: Serine/threonine-protein kinase pim-1 (Homo sapiens, UniProt P11309); assay type: functional
[2] = molecular target: Dual specificity protein kinase CLK4 (Homo sapiens, UniProt Q9HAZ1); assay type: functional
[3] = molecular target: Serine/threonine-protein kinase Chk1 (Homo sapiens, UniProt O14757); assay type: functional;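 further: measured as one member of a kinome-wide kinase profiling panel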
[4] = molecular target: Mitogen-activated protein kinase 8 (Homo sapiens, UniProt P45983); assay type: functional;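 further: value comes from one member of a kinome-wide kinase profiling panel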
[5] = molecular target: Cell division cycle 7-related protein kinase (Homo sapiens, UniProt O00311); assay type: functional;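 further: value obtained from a kinome-wide kinase panel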
[6] = molecular target: ALK tyrosine kinase receptor (Homo sapiens, UniProt Q9UM73); assay type: functional;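 further: ALK tested as one member of a kinase panel screen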
[7] = molecular target: Sphingosine 1-phosphate receptor 2 (Homo sapiens, UniProt O95136); test: S1P2 receptor agonists, human, late-stage follow-up, counter-screen for S1P4 agonist project, cell-based, fluorescence, set 2 (AID 504873); assay type: functional
[8] = molecular target: Sphingosine 1-phosphate receptor 3 (Homo sapiens, UniProt Q99500); test: Late-stage fluorescence-based dose-response cell-based counterscreen assay to identify agonists of the Sphingosine 1-Phosphate Receptor 4 (S1P4): Sphingosine 1-Phosphate Receptor 3 (S1P3) agonist assay Set 2.; assay type: functional
[9] = molecular target: Sphingosine 1-phosphate receptor 1 (Homo sapiens, UniProt P21453); test: Late-stage fluorescence-based dose-response cell-based counterscreen assay to identify agonists of the Sphingosine 1-Phosphate Receptor 4 (S1P4): Sphingosine 1-Phosphate Receptor 1 (S1P1) agonist assay Set 2.; assay type: functional
[10] = molecular target: Sphingosine 1-phosphate receptor 5 (Homo sapiens, UniProt Q9H228); test: S1P5 receptor agonists, human, late-stage follow-up, counter-screen for S1P4 agonist project, cell-based, fluorescence, set 2 (AID 504867); assay type: functional
[11] = molecular target: Protein disulfide-isomerase (Homo sapiens, UniProt P07237); test: PDI inhibitors, insulin aggregation turbidity, dose response, biochemical, absorbance, cherry-picked samples (AID 602350); assay type: functional
[12] = P. falciparum Dd2 growth inhibitors, dose response, SYBR Green, cherry-picked samples (AID 1159567); assay type: functional, cell-based
[13] = molecular target: Botulinum neurotoxin type A (Clostridium botulinum (strain Hall / ATCC 3502 / NCTC 13319 / Type A), UniProt P0DPI1); test: High-throughput multiplex microsphere dose response for inhibitors of toxin protease, specifically Botulinum neurotoxin light chain A protease, compounds from Cherry Pick 01.; assay type: functional; settings: read-out: EC50_MICROM
Ephrin type-A receptor 4 = Ephrin type-A receptor 4 (Mus musculus, UniProt Q03137); test: inhibitors of EphA4 binding to KYL peptide, primary screen, biochemical, colorimetric, mouse EphA4 (AID 689); assay type: functional
[14] = Luminescence Cell-Based Dose Retest to Confirm Inhibitors of Cancer Stem Cells. [Related pubchem assays (depositor defined):AID2717, AID2721]; assay type: functional; settings: Homo sapiens
[15] = molecular target: G-protein coupled receptor 55 (Homo sapiens, UniProt Q9Y2T6); test: GPR55 antagonists blocking LPI-driven arrestin recruitment, primary screen, imaging, U2OS, beta-arrestin-GFP, LPI agonist (AID 2013); assay type: functional;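 further: antagonist potency measured as reduced agonist-driven arrestin aggregation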
[16] = molecular target: cAMP-dependent protein kinase catalytic subunit PRKX (Homo sapiens, UniProt P51817); assay type: functional
[17] = molecular target: Inhibitor of nuclear factor kappa-B kinase subunit epsilon (Homo sapiens, UniProt Q14164); test: Navigating the Kinome. Panel member name: IKBKE; assay type: functional
[18] = molecular target: Voltage-dependent T-type calcium channel subunit alpha-1H (Homo sapiens, UniProt O95180); assay type: functional;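 further: channel activity triggered by adding a high calcium stimulation buffer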
[19] = molecular target: T1, High affinity choline transporter 1 (Homo sapiens, UniProt Q9GZV3); test: CHT activators, dose response, cell-based, 10-point CRC, membrane potential dye (AID 602376); assay type: functional
T1 sequence (Q9GZV3 whole entry): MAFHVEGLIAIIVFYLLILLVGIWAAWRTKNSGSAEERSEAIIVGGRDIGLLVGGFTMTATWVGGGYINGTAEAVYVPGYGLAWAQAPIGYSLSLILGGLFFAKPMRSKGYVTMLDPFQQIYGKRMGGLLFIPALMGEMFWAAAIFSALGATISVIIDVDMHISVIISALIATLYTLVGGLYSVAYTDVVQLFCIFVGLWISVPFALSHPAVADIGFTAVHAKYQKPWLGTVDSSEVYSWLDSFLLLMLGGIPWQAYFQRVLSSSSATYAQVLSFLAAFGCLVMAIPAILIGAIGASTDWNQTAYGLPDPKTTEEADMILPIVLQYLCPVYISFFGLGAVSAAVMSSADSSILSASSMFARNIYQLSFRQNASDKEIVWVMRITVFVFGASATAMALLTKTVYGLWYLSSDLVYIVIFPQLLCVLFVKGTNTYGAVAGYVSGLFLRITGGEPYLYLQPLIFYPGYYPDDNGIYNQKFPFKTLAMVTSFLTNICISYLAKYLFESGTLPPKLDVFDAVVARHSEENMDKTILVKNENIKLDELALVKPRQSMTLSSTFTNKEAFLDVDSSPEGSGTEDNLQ

Wee1-like protein kinase = Wee1-like protein kinase (Homo sapiens, UniProt P30291); test: Navigating the Kinome. Panel member name: WEE1; assay type: functional
[20] = molecular target: T2, Kappa-type opioid receptor (Homo sapiens, UniProt P41145); assay type: functional
[21] = molecular target: T3, Rac GTPase-activating protein 1 (Homo sapiens, UniProt Q9H0H5); test: MgcRacGAP GTPase-activating activity inhibitors, confirmation, biochemical, ADP Hunter fluorescence, primary and confirmatory (AID 624330); assay type: functional
T3 sequence (Q9H0H5 whole entry): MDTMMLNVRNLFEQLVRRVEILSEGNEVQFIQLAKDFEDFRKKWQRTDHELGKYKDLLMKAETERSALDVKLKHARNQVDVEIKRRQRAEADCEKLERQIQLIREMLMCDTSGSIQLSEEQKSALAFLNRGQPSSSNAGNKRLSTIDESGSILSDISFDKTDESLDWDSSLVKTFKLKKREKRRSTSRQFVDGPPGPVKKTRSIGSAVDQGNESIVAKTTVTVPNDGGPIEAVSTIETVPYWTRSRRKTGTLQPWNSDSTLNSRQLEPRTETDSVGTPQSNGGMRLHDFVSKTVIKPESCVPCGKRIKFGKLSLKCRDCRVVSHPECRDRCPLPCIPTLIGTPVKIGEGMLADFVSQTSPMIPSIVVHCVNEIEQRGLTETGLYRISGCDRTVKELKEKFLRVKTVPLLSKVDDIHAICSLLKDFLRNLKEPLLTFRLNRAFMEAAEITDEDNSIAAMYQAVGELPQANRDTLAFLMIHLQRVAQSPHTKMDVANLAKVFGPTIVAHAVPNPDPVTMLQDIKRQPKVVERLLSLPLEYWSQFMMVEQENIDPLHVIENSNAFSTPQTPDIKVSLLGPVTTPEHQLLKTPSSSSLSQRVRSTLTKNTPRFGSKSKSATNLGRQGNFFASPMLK

Escherichia coli [22] = test: microbe, parasite or virus in culture
Escherichia coli [23] = test: microbe, parasite or virus in culture; remark: listed apart in the source
Melanocortin receptor 4 = Melanocortin receptor 4 (Homo sapiens, UniProt P32245); test: MC4R antagonist potency on cAMP, dose response, cell-based, TR-FRET, biased antagonists (AID 602298); assay type: functional;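 further: antagonist potency against agonist-stimulated cAMP production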
[24] = HepG2 cell cytotoxicity, dose response, cytotoxicity control for Shn3 inhibitor project, CellTiter-Glo, cherry-picked (AID 624134); assay type: functional, cell-based
[25] = molecular target: T4, Bifunctional protein GlmU (Mycobacterium tuberculosis, UniProt P9WMN3); test: Inhibitors of Mycobacterial Glucosamine-1-phosphate acetyl transferase (GlmU). Secondary screen.; set-up: species or system Mycobacterium tuberculosis H37Rv
T4 sequence (P9WMN3 whole entry): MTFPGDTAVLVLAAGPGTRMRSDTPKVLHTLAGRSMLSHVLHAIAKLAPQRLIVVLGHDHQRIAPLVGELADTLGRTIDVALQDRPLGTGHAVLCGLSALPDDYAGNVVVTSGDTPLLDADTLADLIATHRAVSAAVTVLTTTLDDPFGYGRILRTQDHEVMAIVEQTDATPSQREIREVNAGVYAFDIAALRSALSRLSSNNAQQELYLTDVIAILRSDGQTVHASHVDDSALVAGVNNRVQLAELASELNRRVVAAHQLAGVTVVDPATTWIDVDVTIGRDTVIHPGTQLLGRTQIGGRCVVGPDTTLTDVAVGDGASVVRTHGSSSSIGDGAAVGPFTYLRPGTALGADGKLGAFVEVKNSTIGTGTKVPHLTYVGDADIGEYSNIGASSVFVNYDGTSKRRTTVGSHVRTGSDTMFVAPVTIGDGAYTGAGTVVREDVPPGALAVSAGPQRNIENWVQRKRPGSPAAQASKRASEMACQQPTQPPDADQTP

[26] = molecular target: T5, V-type proton ATPase subunit c' (Saccharomyces cerevisiae S288c, UniProt P32842); test: Dose Response of Small Molecules that Regulate V-ATPase Proton Transport in Yeast using pHLuorin, Cherry Pick 1. [Related pubchem assays (depositor defined):AID504622]; assay type: functional
[27] = HeLa cell cytotoxicity, dose response, cytotoxicity control for MgcRacGAP inhibitor project (AID 624300); assay type: functional
[28] = molecular target: G-protein coupled receptor 35 (Homo sapiens, UniProt Q9HC97); test: GPR35 antagonists blocking zaprinast-driven arrestin recruitment, primary screen, imaging, U2OS, beta-arrestin-GFP, zaprinast agonist (AID 2058); assay type: functional;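 further: antagonist potency meaning inhibition of agonist-induced arrestin redistribution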
[29] = molecular target: T2, Kappa-type opioid receptor; assay type: functional; remark: listed apart in the source
[30] = nonselective inhibitors of cellular cAMP signaling, dose response, counter-screen for MC4R biased antagonist project, cell-based, TR-FRET cAMP detection (AID 602305); assay type: functional;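 further: U2OS cells stimulated with forskolin near its EC80 as the cAMP inducer; potency is for inhibition of forskolin-stimulated cAMP signaling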
[31] = molecular target: T6, Delta-type opioid receptor (Homo sapiens, UniProt P41143); test: HTS Image-Based Screen for Antagonists of the DOR Receptor. [Related pubchem assays (depositor defined):AID1777, AID1785, AID1786, AID2133]; assay type: functional
[32] = control 3'UTR Renilla luciferase suppression, dose response, counter-screen for Shn3 inhibitor project, cell-based, Clone20-Shn3RL, cherry-picked (AID 624133); assay type: functional
[33] = Shn3 3'UTR reporter inhibitors, dose response, cell-based, Clone20 osteoblasts, firefly luciferase, cherry-picked (AID 624132); assay type: functional;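 further: firefly luciferase luminescence from reporter carrying the Shn3 3'UTR in osteoblasts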
[34] = molecular target: T7, Mannose-6-phosphate isomerase (Homo sapiens, UniProt P34949); test: inhibitors of human PMI, primary screen, biochemical, fluorescence intensity, coupled assay (AID 1209)
T7 sequence (P34949 whole entry): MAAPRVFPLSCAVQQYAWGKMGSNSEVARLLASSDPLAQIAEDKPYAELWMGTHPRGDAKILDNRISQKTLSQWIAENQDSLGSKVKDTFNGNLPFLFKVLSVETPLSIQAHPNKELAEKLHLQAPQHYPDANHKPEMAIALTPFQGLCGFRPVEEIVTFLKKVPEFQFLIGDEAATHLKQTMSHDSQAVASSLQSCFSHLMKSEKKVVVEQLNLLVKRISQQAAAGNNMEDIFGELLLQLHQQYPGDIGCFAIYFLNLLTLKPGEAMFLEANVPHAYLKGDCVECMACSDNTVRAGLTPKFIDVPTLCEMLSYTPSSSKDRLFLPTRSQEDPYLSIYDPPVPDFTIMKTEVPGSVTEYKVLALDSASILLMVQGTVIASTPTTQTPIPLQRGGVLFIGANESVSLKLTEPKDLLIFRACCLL

[35] = molecular target: T5, V-type proton ATPase subunit c'; test: Dose Response of Small Molecules that Regulate V-ATPase Proton Transport in Yeast using pHLuorin, Cherry Pick 2.; assay type: functional; settings: read-out: EC50_MICROM
[36] = molecular target: Heat shock protein HSP 90-alpha (Homo sapiens, UniProt P07900); assay type: functional, organism-based
[37] = molecular target: T6, Delta-type opioid receptor; test: HTS Image-Based Screen for Agonists of the DOR Receptor. [Related pubchem assays (depositor defined):AID1777, AID1786, AID2133]; assay type: functional
Mu-type opioid receptor = Mu-type opioid receptor (Homo sapiens, UniProt P35372); test: HTS Image-Based Screen for Agonists of the MOR Receptor. [Related pubchem assays (depositor defined):AID1777, AID1785, AID1786, AID2133]; assay type: functional;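 further: imaging of beta-arrestin GFP recruitment into spots after receptor activation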
Chain of Mu-type opioid receptor (P35372 whole entry): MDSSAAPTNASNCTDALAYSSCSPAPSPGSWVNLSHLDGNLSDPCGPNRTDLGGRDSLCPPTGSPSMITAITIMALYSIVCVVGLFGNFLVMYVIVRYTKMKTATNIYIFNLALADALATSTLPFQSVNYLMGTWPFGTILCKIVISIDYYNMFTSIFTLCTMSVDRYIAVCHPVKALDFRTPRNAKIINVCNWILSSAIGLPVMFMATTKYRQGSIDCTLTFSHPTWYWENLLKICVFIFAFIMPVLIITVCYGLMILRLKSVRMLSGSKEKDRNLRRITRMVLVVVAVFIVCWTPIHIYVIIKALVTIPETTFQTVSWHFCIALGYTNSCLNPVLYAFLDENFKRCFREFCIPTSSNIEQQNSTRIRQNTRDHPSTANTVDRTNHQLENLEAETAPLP

Chain of ALK tyrosine kinase receptor (Q9UM73 whole entry): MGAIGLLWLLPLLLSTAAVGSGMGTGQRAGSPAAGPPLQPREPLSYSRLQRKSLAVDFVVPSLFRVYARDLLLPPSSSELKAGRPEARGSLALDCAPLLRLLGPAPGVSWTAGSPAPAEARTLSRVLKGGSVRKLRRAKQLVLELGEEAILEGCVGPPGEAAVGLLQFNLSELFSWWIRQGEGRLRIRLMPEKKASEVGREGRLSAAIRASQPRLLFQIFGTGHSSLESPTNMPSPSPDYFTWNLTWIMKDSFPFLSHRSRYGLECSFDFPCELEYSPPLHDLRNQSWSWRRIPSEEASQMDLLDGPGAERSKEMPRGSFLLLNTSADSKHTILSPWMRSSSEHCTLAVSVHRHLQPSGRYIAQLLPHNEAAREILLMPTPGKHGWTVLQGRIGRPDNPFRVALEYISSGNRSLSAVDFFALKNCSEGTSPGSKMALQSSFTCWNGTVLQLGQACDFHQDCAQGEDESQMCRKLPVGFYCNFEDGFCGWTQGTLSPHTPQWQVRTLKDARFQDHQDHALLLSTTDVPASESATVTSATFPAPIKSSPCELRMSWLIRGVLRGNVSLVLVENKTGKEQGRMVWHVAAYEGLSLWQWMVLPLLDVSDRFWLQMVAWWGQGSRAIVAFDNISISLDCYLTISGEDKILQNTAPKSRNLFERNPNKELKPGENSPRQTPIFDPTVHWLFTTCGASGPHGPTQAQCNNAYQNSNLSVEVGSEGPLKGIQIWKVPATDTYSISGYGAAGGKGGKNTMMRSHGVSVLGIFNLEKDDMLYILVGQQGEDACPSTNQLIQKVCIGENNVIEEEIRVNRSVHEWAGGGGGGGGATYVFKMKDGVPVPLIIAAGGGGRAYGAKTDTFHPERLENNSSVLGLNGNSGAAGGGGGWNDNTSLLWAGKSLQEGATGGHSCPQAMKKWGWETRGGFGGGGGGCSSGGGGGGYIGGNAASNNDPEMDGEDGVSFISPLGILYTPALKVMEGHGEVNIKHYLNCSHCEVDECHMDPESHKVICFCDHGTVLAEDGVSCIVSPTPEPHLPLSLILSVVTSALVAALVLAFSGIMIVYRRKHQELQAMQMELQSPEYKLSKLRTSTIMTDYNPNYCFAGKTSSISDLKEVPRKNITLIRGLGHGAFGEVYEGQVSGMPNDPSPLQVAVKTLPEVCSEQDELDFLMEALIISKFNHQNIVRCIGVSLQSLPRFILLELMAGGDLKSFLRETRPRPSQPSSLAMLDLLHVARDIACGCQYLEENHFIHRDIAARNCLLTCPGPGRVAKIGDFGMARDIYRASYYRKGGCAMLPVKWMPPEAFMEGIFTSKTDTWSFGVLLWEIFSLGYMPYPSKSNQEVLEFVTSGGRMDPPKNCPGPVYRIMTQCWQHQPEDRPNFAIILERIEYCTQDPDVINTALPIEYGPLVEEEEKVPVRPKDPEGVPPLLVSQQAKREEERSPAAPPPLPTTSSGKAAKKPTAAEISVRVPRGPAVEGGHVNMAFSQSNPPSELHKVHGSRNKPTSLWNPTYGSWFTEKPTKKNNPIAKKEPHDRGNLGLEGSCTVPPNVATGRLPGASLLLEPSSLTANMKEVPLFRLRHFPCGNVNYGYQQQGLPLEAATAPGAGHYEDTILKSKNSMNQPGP
T5 sequence (P32842 whole entry): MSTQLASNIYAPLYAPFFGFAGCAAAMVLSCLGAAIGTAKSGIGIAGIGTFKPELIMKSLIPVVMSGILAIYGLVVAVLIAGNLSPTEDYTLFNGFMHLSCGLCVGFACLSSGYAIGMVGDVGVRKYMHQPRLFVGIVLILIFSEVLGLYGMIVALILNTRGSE
T6 sequence (P41143 whole entry): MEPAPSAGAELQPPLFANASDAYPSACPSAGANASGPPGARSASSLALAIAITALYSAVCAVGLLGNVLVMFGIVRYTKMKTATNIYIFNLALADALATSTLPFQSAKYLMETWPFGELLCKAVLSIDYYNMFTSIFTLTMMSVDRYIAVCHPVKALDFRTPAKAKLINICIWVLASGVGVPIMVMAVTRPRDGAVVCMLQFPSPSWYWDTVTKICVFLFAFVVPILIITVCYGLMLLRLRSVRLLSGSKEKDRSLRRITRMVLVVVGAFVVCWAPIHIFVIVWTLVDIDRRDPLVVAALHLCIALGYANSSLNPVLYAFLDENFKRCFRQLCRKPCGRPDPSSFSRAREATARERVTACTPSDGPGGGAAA
T2 sequence (P41145 whole entry): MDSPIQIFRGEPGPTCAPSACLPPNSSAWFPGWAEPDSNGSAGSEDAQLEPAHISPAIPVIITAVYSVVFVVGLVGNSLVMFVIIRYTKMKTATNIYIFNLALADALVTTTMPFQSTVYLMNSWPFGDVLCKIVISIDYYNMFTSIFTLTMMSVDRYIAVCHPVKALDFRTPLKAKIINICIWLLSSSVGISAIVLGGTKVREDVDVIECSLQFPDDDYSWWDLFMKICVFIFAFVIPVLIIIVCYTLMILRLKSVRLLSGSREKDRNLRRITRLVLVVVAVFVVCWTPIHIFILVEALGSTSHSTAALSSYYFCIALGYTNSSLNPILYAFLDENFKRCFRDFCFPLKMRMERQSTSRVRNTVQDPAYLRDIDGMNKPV
Chain of G-protein coupled receptor 35 (Q9HC97 whole entry): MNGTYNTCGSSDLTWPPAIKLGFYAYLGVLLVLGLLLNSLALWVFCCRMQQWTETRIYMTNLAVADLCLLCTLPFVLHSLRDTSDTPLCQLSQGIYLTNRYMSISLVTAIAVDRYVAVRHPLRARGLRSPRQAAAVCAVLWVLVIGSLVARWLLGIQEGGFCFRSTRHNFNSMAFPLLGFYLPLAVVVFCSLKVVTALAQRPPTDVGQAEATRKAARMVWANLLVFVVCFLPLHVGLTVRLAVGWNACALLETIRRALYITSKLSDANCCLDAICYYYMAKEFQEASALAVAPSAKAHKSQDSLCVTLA
Chain of Sphingosine 1-phosphate receptor 2 (O95136 whole entry): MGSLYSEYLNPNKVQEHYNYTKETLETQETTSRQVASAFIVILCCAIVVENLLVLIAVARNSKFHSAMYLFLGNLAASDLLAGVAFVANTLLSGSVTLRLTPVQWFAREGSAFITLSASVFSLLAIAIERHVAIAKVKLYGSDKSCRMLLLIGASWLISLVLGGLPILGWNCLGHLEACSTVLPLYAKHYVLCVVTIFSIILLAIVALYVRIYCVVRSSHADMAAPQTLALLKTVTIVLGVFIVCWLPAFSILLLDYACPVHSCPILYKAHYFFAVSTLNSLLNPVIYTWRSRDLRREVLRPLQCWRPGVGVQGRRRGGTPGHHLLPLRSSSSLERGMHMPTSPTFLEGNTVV
Chain of Cell division cycle 7-related protein kinase (O00311 whole entry): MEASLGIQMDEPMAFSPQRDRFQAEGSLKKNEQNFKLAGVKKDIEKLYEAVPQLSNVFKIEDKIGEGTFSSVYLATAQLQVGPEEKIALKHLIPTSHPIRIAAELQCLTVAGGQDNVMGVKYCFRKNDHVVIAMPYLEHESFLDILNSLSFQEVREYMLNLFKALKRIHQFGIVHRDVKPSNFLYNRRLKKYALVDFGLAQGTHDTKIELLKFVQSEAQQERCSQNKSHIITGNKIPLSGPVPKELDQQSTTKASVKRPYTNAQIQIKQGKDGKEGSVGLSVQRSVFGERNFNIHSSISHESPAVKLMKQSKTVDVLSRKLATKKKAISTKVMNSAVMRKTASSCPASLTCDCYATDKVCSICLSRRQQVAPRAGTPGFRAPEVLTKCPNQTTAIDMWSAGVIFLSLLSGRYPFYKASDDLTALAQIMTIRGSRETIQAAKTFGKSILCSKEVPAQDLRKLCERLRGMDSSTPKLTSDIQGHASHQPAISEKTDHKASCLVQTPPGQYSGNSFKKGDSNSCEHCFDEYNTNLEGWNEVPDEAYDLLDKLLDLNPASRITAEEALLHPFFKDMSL
Chain of Serine/threonine-protein kinase Chk1 (O14757 whole entry): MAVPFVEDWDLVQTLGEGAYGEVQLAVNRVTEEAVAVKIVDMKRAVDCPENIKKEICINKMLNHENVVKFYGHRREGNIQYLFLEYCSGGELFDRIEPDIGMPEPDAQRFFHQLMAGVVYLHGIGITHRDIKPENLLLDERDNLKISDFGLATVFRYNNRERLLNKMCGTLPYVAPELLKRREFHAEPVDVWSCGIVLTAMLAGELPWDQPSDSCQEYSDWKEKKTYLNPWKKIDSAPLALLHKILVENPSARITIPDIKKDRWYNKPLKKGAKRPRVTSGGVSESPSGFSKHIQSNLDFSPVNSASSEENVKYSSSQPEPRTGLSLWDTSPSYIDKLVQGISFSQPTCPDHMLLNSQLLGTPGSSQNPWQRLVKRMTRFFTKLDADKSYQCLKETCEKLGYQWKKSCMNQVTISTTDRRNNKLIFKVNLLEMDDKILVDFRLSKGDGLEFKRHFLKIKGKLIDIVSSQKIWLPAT
Chain of Melanocortin receptor 4 (P32245 whole entry): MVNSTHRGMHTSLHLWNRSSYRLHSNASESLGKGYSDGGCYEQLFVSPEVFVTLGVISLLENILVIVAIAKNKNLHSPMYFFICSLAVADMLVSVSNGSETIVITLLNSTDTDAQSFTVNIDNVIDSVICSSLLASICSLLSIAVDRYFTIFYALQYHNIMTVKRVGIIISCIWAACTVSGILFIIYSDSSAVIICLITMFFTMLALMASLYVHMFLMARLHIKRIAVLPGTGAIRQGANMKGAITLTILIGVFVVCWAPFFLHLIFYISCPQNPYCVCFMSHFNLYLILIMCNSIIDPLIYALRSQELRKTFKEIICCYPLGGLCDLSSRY

COc1ccc(C(=O)Nc2ccccc2C(=O)O)cc1OC
Ki [1]: 5.01 µM (active) | Ki [2]: 1.58 µM (active) | Ki [3]: 1.58 µM (active) | Ki [4]: 2.51 µM (active)

O=c1cc(-c2ccccc2)nc(NC2CCCCC2)[nH]1
Ki [5]: 0.251 µM (active) | Ki [6]: > 5.01 µM (inactive)

CC/N=C1/S/C(=C/c2cc(C)n(-c3ccccn3)c2C)C(=O)N1CC
EC50 [7]: > 25 µM (inactive) | EC50 [8]: > 25 µM (inactive) | EC50 [9]: 0.103 µM (active) | EC50 [10]: 0.72 µM (active)

C[C@H](CO)N1C[C@H](C)[C@@H](CN(C)S(=O)(=O)c2ccccc2)Oc2ccc(NC(=O)Cc3cn(C)c4ccccc34)cc2C1=O
AC50 [11]: 0.125 µM (active) | AC50 [12]: 4.29 µM (active)

CCSc1nnc(-c2sc3nnc(-c4ccccc4)c(-c4ccccc4)c3c2N)o1
EC50 [13]: 6.9 µM (active) | IC50 (Ephrin type-A receptor 4): 4.62 µM (active) | AC50 [14]: 0.286 µM (active) | IC50 [15]: 2.44 µM (active)

O=C(O)C1CN(Cc2ccc(OCc3cccc(C(F)(F)F)c3)cc2F)C1
Ki [16]: 2.51 µM (active) | Ki [17]: 3.16 µM (active)

CCN(CC)CCn1c(NCc2nc3ccccc3n2Cc2ccccc2)nc2ccccc21
EC50 [18]: 4.94 µM (active) | EC50 [19]: 11.4 µM (active)

CCN1CCN(c2ccc(Nc3ncc(Cl)c(Nc4ccc(O)c(NC(C)=O)c4)n3)cc2)CC1
Ki (Wee1-like protein kinase): 0.00794 µM (active) | Ki [6]: 0.501 µM (active)

Cc1c(Cl)sn(-c2ccc(Cl)cc2)c1=O
EC50 [20]: 6.37 µM | IC50 [21]: 49.6 µM (active) | AC50 (Escherichia coli [22]): 2.64 µM (active) | AC50 (Escherichia coli [23]): 6.51 µM (active) | IC50 (Melanocortin receptor 4): 3.75 µM (active) | AC50 [24]: 19.8 µM (active) | IC50 [25]: 118 µM (active) | EC50 [26]: 5.19 µM (active) | CC50 [27]: 9.78 µM (active) | IC50 [28]: 2.72 µM (active) | EC50 [29]: > 35 µM | IC50 [30]: 19.6 µM (inactive) | IC50 [31]: > 32 µM (inactive) | AC50 [32]: 3.85 µM (active) | AC50 [33]: 0.728 µM (active) | IC50 [34]: > 50 µM (not active) | EC50 [35]: 1.4 µM (active) | AC50 [36]: < 0.195 µM (active) | EC50 [37]: > 32 µM (inactive) | EC50 (Mu-type opioid receptor): > 32 µM (inactive)
